Data as given in ChEMBL document CHEMBL1201862, “PubChem BioAssay data set” (2004).
Where “and” joins values, the source holds several entries; their conditions need not be identical. Equal values may be shown once.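 Step 1: Grow cells in 96-well plates. Step 2: Expose to compound for 48 hours at 5 concentrations. Step 3: Interpolate endpoints linearly; if unreached, use highest concentration. GI50 = concentration required for 50% inhibition of growth.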 Calls of active or inactive are those of the source. No stated cut-off is given here; in the data, active = GI50 up to about 1.1 µM and inactive = higher.

Experiments:
Assay in all cases: inhibition of tumour cell growth, NCI panel, 48 h
[1] = tested on: ACHN
[2] = tested on: T47D
[3] = tested on: OVCAR-8
[4] = tested on: SF-295
[5] = tested on: HCC 2998
[6] = tested on: OVCAR-3
[7] = tested on: NCI-H522
[8] = tested on: HOP-62
[9] = tested on: COLO 205
[10] = tested on: BT-549
[11] = tested on: SNB-19
[12] = tested on: CCRF-CEM
[13] = tested on: HCT-116
[14] = tested on: TK-10
[15] = tested on: A549
[16] = tested on: HT-29
[17] = tested on: NCI/ADR-RES
[18] = tested on: OVCAR-4
[19] = tested on: KM12
[20] = tested on: SNB-75

| SMILES | GI50 [1] | GI50 [2] | GI50 [3] | GI50 [4] | GI50 [5] | GI50 [6] | GI50 [7] | GI50 [8] | GI50 [9] | GI50 [10] | GI50 [11] | GI50 [12] | GI50 [13] | GI50 [14] | GI50 [15] | GI50 [16] | GI50 [17] | GI50 [18] | GI50 [19] | GI50 [20] |
| --- | --- | --- | --- | --- | --- | --- | --- | --- | --- | --- | --- | --- | --- | --- | --- | --- | --- | --- | --- | --- |
| CCN(CC)CCNc1ccc2nnn3c4ccc(OC(C)=O)cc4c(=O)c1c23 | 1.02 µM (active) | 15.8 µM (inactive) | 1.15 µM (inactive) | 4.51 µM (inactive) | 2.53 µM (inactive) | 7.96 µM (inactive) | 0.628 µM (active) | 1.98 µM (inactive) | 2.45 µM (inactive) | 13.4 µM (inactive) | > 20.3 µM (inactive) | 0.644 µM (active) | 3.46 µM (inactive) | 3.52 µM (inactive) | 3.14 µM (inactive) | 1.47 µM (inactive) | 4.45 µM (inactive) | 2.36 µM (inactive) | 3.15 µM (inactive) |  |
| N=C(N)N/N=C/c1nc2n(c1[N+](=O)[O-])CCS2 | > 100 µM (inactive) | 17.3 µM (inactive) | 15.7 µM (inactive) | 26.4 µM (inactive) |  | 7.35 µM (inactive) | 12.9 µM (inactive) | 41.4 µM (inactive) | 14 µM (inactive) | 31.6 µM (inactive) | 27.5 µM (inactive) |  | 21.9 µM (inactive) | 40.7 µM (inactive) | 26.8 µM (inactive) | 30.2 µM (inactive) | > 100 µM (inactive) | 16.2 µM (inactive) | 25 µM (inactive) | 23.9 µM (inactive) |
| CC(=O)NCCC1CNc2ccccc21 (stereo unspecified) | > 100 µM (inactive) | > 100 µM (inactive) | > 100 µM (inactive) | > 100 µM (inactive) | > 100 µM (inactive) | > 100 µM (inactive) | > 100 µM (inactive) |  | > 100 µM (inactive) | > 100 µM (inactive) | > 100 µM (inactive) | > 100 µM (inactive) | > 100 µM (inactive) | > 100 µM (inactive) | > 100 µM (inactive) | > 100 µM (inactive) | > 100 µM (inactive) | > 100 µM (inactive) | > 100 µM (inactive) |  |
| CCCCCC/C=C\CCCCCCCCCc1c(O)c(OC)cc(O)c1CN(C)C | 10.7 µM (inactive) | 1.76 µM (inactive) | 4.06 µM (inactive) | 5.38 µM (inactive) |  | 6.35 µM (inactive) | 1.64 µM (inactive) | 12.8 µM (inactive) | 1.92 µM (inactive) | 9.2 µM (inactive) | 12.9 µM (inactive) | 0.887 µM (active) | 3.85 µM (inactive) | 14.6 µM (inactive) | 4.04 µM (inactive) | 4.44 µM (inactive) | 5.89 µM (inactive) | 1.47 µM (inactive) | 3.34 µM (inactive) | 2.79 µM (inactive) |
| FC(F)(F)C1(C(F)(F)F)OC(Cl)(Cl)C(Cl)(Cl)O1 | > 10 µM (inactive) | > 10 µM (inactive) | > 10 µM (inactive) | > 10 µM (inactive) | > 10 µM (inactive) | > 10 µM (inactive) | > 10 µM (inactive) | > 10 µM (inactive) | > 10 µM (inactive) | > 10 µM (inactive) | > 10 µM (inactive) |  | > 10 µM (inactive) | > 10 µM (inactive) | > 10 µM (inactive) | > 10 µM (inactive) | > 10 µM (inactive) | > 10 µM (inactive) | > 10 µM (inactive) |  |
| Cc1cc(C)c(S(=O)(=O)N(CCCN)OCCCN)c(C)c1 | > 100 µM (inactive) | > 100 µM (inactive) | > 100 µM (inactive) | > 100 µM (inactive) | > 100 µM (inactive) | 56 µM (inactive) |  | 6.52 µM (inactive) | > 100 µM (inactive) | > 100 µM (inactive) | > 100 µM (inactive) | > 100 µM (inactive) | > 100 µM (inactive) | > 100 µM (inactive) | > 100 µM (inactive) | > 100 µM (inactive) | > 100 µM (inactive) | > 100 µM (inactive) | > 100 µM (inactive) | > 100 µM (inactive) |
| COc1ccc(-c2nc(SC)n(C3OC(COC(C)=O)C(OC(C)=O)C(OC(C)=O)C3OC(C)=O)c(=O)c2C#N)cc1 (stereo unspecified) |  | 95.7 µM (inactive) | 79.3 µM (inactive) |  | > 100 µM (inactive) |  |  |  | > 100 µM (inactive) | > 100 µM (inactive) |  | > 100 µM (inactive) | > 100 µM (inactive) and 91.2 µM (inactive) | > 100 µM (inactive) | 59 µM (inactive) | > 100 µM (inactive) | 79.8 µM (inactive) |  | > 100 µM (inactive) |  |
| CC1(C)OC2C(CO)OC(n3ccc(N)nc3=O)C2O1 (stereo unspecified) | > 100 µM (inactive) | > 100 µM (inactive) | > 100 µM (inactive) | > 100 µM (inactive) | > 100 µM (inactive) | > 100 µM (inactive) | > 100 µM (inactive) | > 100 µM (inactive) | > 100 µM (inactive) | > 100 µM (inactive) | > 100 µM (inactive) | > 100 µM (inactive) | > 100 µM (inactive) | > 100 µM (inactive) | > 100 µM (inactive) |  | > 100 µM (inactive) |  | > 100 µM (inactive) |  |
| O=c1c2ccc(S(=O)(=O)c3ccc4c(=O)n5c6ccccc6nc5c5cccc3c45)c3cccc(c32)c2nc3ccccc3n12 | 15.2 µM (inactive) | 36.6 µM (inactive) | 47.9 µM (inactive) | 15.3 µM (inactive) | > 100 µM (inactive) | > 100 µM (inactive) | 27.7 µM (inactive) | 37.8 µM (inactive) | > 100 µM (inactive) | 20 µM (inactive) | 16.6 µM (inactive) |  | > 100 µM (inactive) | 21.8 µM (inactive) | > 100 µM (inactive) | > 100 µM (inactive) | > 100 µM (inactive) |  | > 100 µM (inactive) |  |
| Nc1ccc(Nc2cc(=O)[nH]c(=O)[nH]2)cc1Cl | > 100 µM (inactive) | > 100 µM (inactive) | > 100 µM (inactive) | > 100 µM (inactive) | > 100 µM (inactive) | > 100 µM (inactive) | > 100 µM (inactive) |  | > 100 µM (inactive) | > 100 µM (inactive) | > 100 µM (inactive) | > 100 µM (inactive) | > 100 µM (inactive) | > 100 µM (inactive) | > 100 µM (inactive) | > 100 µM (inactive) | > 100 µM (inactive) | > 100 µM (inactive) |  |  |
| O=C1C=C(C2=CC(=O)C(=O)c3ccccc32)c2ccccc2C1=O | 21 µM (inactive) | 19.5 µM (inactive) | 20.2 µM (inactive) | 21.2 µM (inactive) |  | 2.58 µM (inactive) | 2.76 µM (inactive) | 24.2 µM (inactive) | 18 µM (inactive) | 46.6 µM (inactive) | 29.7 µM (inactive) | 1.98 µM (inactive) | 6.65 µM (inactive) | 7.46 µM (inactive) | 35.6 µM (inactive) | 28.6 µM (inactive) | 23.2 µM (inactive) | 47.6 µM (inactive) | 18.6 µM (inactive) | 22.4 µM (inactive) |
| O=C1/C(=C/c2ccccc2S)N=C(c2ccccc2)N1c1nc2c(Cl)cc(Cl)cc2s1 | 22.6 µM (inactive) | 31.7 µM (inactive) | 22.2 µM (inactive) | 24.7 µM (inactive) | 26.4 µM (inactive) | 17.3 µM (inactive) |  | 16.6 µM (inactive) | 21.7 µM (inactive) | 26.7 µM (inactive) | 27.8 µM (inactive) | 2.27 µM (inactive) | 17.7 µM (inactive) | 37.1 µM (inactive) | 21.9 µM (inactive) | 18.4 µM (inactive) | 26.8 µM (inactive) | 28.4 µM (inactive) | 24.3 µM (inactive) | 30.1 µM (inactive) |
| O=S(=O)(O)c1cc(O)c2c(O)c(/N=N/c3cccc4ccccc34)c(S(=O)(=O)O)cc2c1 | > 100 µM (inactive) | > 100 µM (inactive) | > 100 µM (inactive) | > 100 µM (inactive) |  | > 100 µM (inactive) | > 100 µM (inactive) | > 100 µM (inactive) | > 100 µM (inactive) | > 100 µM (inactive) | > 100 µM (inactive) |  | > 100 µM (inactive) | > 100 µM (inactive) | > 100 µM (inactive) | > 100 µM (inactive) | > 100 µM (inactive) | > 100 µM (inactive) | > 100 µM (inactive) | > 100 µM (inactive) |
| CCSc1cc(C(=O)OC)c2n(c1=O)CCCC2 | > 100 µM (inactive) | > 100 µM (inactive) | > 100 µM (inactive) | > 100 µM (inactive) |  |  | > 100 µM (inactive) | > 100 µM (inactive) | > 100 µM (inactive) | > 100 µM (inactive) | > 100 µM (inactive) | > 100 µM (inactive) | > 100 µM (inactive) | > 100 µM (inactive) | > 100 µM (inactive) | > 100 µM (inactive) | > 100 µM (inactive) | > 100 µM (inactive) | > 100 µM (inactive) | > 100 µM (inactive) |
| Nc1ncnc2c1ncn2C1OC(CO)C(O)C1N (stereo unspecified) | > 100 µM (inactive) | > 100 µM (inactive) | > 100 µM (inactive) | > 100 µM (inactive) |  | > 100 µM (inactive) | > 100 µM (inactive) | > 100 µM (inactive) | > 100 µM (inactive) | > 100 µM (inactive) | > 100 µM (inactive) |  | > 100 µM (inactive) | > 100 µM (inactive) | > 100 µM (inactive) | > 100 µM (inactive) | > 100 µM (inactive) | > 100 µM (inactive) | > 100 µM (inactive) | > 100 µM (inactive) |
